Columns and labels:
downy bromegrass = experiment: Test D preemergence test; assay type: in vivo, Bromus tectorum; settings: scale 0 to 100
Excerpt: (§1) Seeds of plant species selected from annual bluegrass (Poa annua), blackgrass (Alopecurus myosuroides), downy bromegrass (Bromus tectorum), field violet (Viola arvensis), green foxtail (Setaria viridis), Italian ryegrass (Lolium multiflorum), littleseed canarygrass (Phalaris minor), spring wheat (Triticum aestivum), wild oat (Avena fatua), […]), winter barley (Hordeum vulgare), and winter wheat (Triticum aestivum) were planted and treated preemergence with test chemicals formulated in a non-phytotoxic solvent mixture which included a surfactant. […] A dash (-) response means no test result.

millet foxtail = experiment: Test G preemergence test; assay type: in vivo, Setaria italica; settings: scale 0 to 100
winter barley = experiment: Test D preemergence test; assay type: in vivo, Hordeum vulgare
Excerpt: as §1

yellow foxtail = experiment: Test G preemergence test; assay type: in vivo, Pennisetum glaucum; settings: scale 0 to 100
spring wheat = experiment: Test D preemergence test; assay type: in vivo, Triticum aestivum; settings: scale 0 to 100
Excerpt: as §1

winter wheat = experiment: Test D preemergence test; assay type: in vivo, Triticum aestivum; settings: scale 0 to 100
Excerpt: as §1

Italian ryegrass = experiment: Test D preemergence test; assay type: in vivo, Lolium multiflorum; settings: scale 0 to 100
Excerpt: as §1

goosegrass = experiment: Test G preemergence test; assay type: in vivo, Eleusine indica; settings: scale 0 to 100
sorghum = experiment: Test G preemergence test; assay type: in vivo, Sorghum vulgare; settings: scale 0 to 100
millet = experiment: Test G preemergence test; assay type: in vivo, Panicum miliaceum; settings: scale 0 to 100
woolly cupgrass = experiment: Test G preemergence test; assay type: in vivo, Eriochloa villosa; settings: scale 0 to 100
itchgrass = experiment: Test G preemergence test; assay type: in vivo, Rottboellia cochinchinensis; settings: scale 0 to 100
fall panicum = experiment: Test G preemergence test; assay type: in vivo, Panicum dichotomiflorum; settings: scale 0 to 100
cotton = experiment: Test G preemergence test; assay type: in vivo, Gossypium hirsutum; settings: scale 0 to 100
field violet = experiment: Test D preemergence test; assay type: in vivo, Viola arvensis; settings: scale 0 to 100
Excerpt: as §1

eastern black nightshade = experiment: Test G preemergence test; assay type: in vivo, Solanum ptycanthum; settings: scale 0 to 100
broadleaf signalgrass = experiment: Test G preemergence test; assay type: in vivo, Brachiaria platyphylla; settings: scale 0 to 100
annual bluegrass = experiment: Test D preemergence test; assay type: in vivo, Poa annua; settings: scale 0 to 100
Excerpt: as §1

littleseed canarygrass = experiment: Test D preemergence test; assay type: in vivo, Phalaris minor; settings: scale 0 to 100
Excerpt: as §1

wild oat = experiment: Test D preemergence test; assay type: in vivo, Avena fatua; settings: scale 0 to 100
Excerpt: as §1

yellow nutsedge = experiment: Test G preemergence test; assay type: in vivo, Cyperus esculentus; settings: scale 0 to 100
large crabgrass = experiment: Test G preemergence test; assay type: in vivo, Digitaria sanguinalis; settings: scale 0 to 100
giant foxtail = experiment: Test G preemergence test; assay type: in vivo, Setaria faberii; settings: scale 0 to 100

SMILES: Cc1cc[n+]([O-])c(S(=O)(=O)C(Cl)c2c(C(F)(F)F)nn(C)c2Cl)c1 (racemic) [Compound 22]
- Plant response rating, Bromegrass, Downy (downy bromegrass; 31 g ai/ha): 0
- Plant response rating, Bromegrass, Downy (downy bromegrass; 62 g ai/ha): 20
- Plant response rating, Bromegrass, Downy (downy bromegrass; 125 g ai/ha): 20
- Plant response rating, Bromegrass, Downy (downy bromegrass; 250 g ai/ha): 35
- Plant response rating, Foxtail, Millet (millet foxtail; 31 g ai/ha): 95
- Plant response rating, Foxtail, Millet (millet foxtail; 62 g ai/ha): 95
- Plant response rating, Foxtail, Millet (millet foxtail; 125 g ai/ha): 95
- Plant response rating, Foxtail, Millet (millet foxtail; 250 g ai/ha): 95
- Plant response rating, Barley (winter barley; Preemergence, 62 g ai/ha, scale 0 to 100): 0
- Plant response rating, Barley (winter barley; Preemergence, 125 g ai/ha, scale 0 to 100): 0
- Plant response rating, Barley (winter barley; Preemergence, 31 g ai/ha, scale 0 to 100): 0
- Plant response rating, Barley (winter barley; preemergence, 250 g ai/ha, scale 0 (no effect) to 100 (complete control)): 0
- Plant response rating, Foxtail, Yellow (yellow foxtail; 31 g ai/ha): 0
- Plant response rating, Foxtail, Yellow (yellow foxtail; 62 g ai/ha): 35
- Plant response rating, Foxtail, Yellow (yellow foxtail; 125 g ai/ha): 100
- Plant response rating, Foxtail, Yellow (yellow foxtail; 250 g ai/ha): 100
- Plant response rating, Wheat, Spring (spring wheat; 31 g ai/ha): 0
- Plant response rating, Wheat, Spring (spring wheat; 62 g ai/ha): 0
- Plant response rating, Wheat, Spring (spring wheat; 125 g ai/ha): 0
- Plant response rating, Wheat, Spring (spring wheat; 250 g ai/ha): 15
- Plant response rating, Wheat, Winter (winter wheat; 31 g ai/ha): 0
- Plant response rating, Wheat, Winter (winter wheat; 62 g ai/ha): 0
- Plant response rating, Wheat, Winter (winter wheat; 125 g ai/ha): 0
- Plant response rating, Wheat, Winter (winter wheat; 250 g ai/ha): 10
- Plant response rating, Ryegrass, Italian (Italian ryegrass; 31 g ai/ha): 0
- Plant response rating, Ryegrass, Italian (Italian ryegrass; 62 g ai/ha): 30
- Plant response rating, Ryegrass, Italian (Italian ryegrass; 125 g ai/ha): 35
- Plant response rating, Ryegrass, Italian (Italian ryegrass; 250 g ai/ha): 55
- Plant response rating, Goosegrass (goosegrass; 31 g ai/ha): 100
- Plant response rating, Goosegrass (goosegrass; 62 g ai/ha): 100
- Plant response rating, Goosegrass (goosegrass; 125 g ai/ha): 100
- Plant response rating, Goosegrass (goosegrass; 250 g ai/ha): 100
- Plant response rating, Sorghum (sorghum; 31 g ai/ha): 0
- Plant response rating, Sorghum (sorghum; 62 g ai/ha): 0
- Plant response rating, Sorghum (sorghum; 125 g ai/ha): 0
- Plant response rating, Sorghum (sorghum; 250 g ai/ha): 95
- Plant response rating, Millet (millet; 31 g ai/ha): 0
- Plant response rating, Millet (millet; 62 g ai/ha): 35
- Plant response rating, Millet (millet; 125 g ai/ha): 60
- Plant response rating, Millet (millet; 250 g ai/ha): 100
- Plant response rating, Cupgrass, Woolly (woolly cupgrass; 31 g ai/ha): 0
- Plant response rating, Cupgrass, Woolly (woolly cupgrass; 62 g ai/ha): 60
- Plant response rating, Cupgrass, Woolly (woolly cupgrass; 125 g ai/ha): 70
- Plant response rating, Cupgrass, Woolly (woolly cupgrass; 250 g ai/ha): 80
- Plant response rating, Itchgrass (itchgrass; 31 g ai/ha): 0
- Plant response rating, Itchgrass (itchgrass; 62 g ai/ha): 15
- Plant response rating, Itchgrass (itchgrass; 125 g ai/ha): 20
- Plant response rating, Itchgrass (itchgrass; 250 g ai/ha): 40
- Plant response rating, Fall Panicum (fall panicum; 31 g ai/ha): 85
- Plant response rating, Fall Panicum (fall panicum; 62 g ai/ha): 85
- Plant response rating, Fall Panicum (fall panicum; 125 g ai/ha): 90
- Plant response rating, Fall Panicum (fall panicum; 250 g ai/ha): 100
- Plant response rating, Cotton (cotton; 31 g ai/ha): 0
- Plant response rating, Cotton (cotton; 62 g ai/ha): 0
- Plant response rating, Cotton (cotton; 125 g ai/ha): 0
- Plant response rating, Cotton (cotton; 250 g ai/ha): 0
- Plant response rating, Field Violet (field violet; 31 g ai/ha): 0
- Plant response rating, Field Violet (field violet; 62 g ai/ha): 30
- Plant response rating, Field Violet (field violet; 125 g ai/ha): 30
- Plant response rating, Field Violet (field violet; 250 g ai/ha): 45
- Plant response rating, Nightshade (eastern black nightshade; 31 g ai/ha): 0
- Plant response rating, Nightshade (eastern black nightshade; 62 g ai/ha): 0
- Plant response rating, Nightshade (eastern black nightshade; 125 g ai/ha): 0
- Plant response rating, Nightshade (eastern black nightshade; 250 g ai/ha): 45
- Plant response rating, Signalgrass (broadleaf signalgrass; 31 g ai/ha): 0
- Plant response rating, Signalgrass (broadleaf signalgrass; 62 g ai/ha): 40
- Plant response rating, Signalgrass (broadleaf signalgrass; 125 g ai/ha): 65
- Plant response rating, Signalgrass (broadleaf signalgrass; 250 g ai/ha): 75
- Plant response rating, Bluegrass (annual bluegrass; 31 g ai/ha): 20
- Plant response rating, Bluegrass (annual bluegrass; 62 g ai/ha): 65
- Plant response rating, Bluegrass (annual bluegrass; 125 g ai/ha): 95
- Plant response rating, Bluegrass (annual bluegrass; 250 g ai/ha): 100
- Plant response rating, Canarygrass (littleseed canarygrass; 31 g ai/ha): 0
- Plant response rating, Canarygrass (littleseed canarygrass; 62 g ai/ha): 15
- Plant response rating, Canarygrass (littleseed canarygrass; 125 g ai/ha): 75
- Plant response rating, Canarygrass (littleseed canarygrass; 250 g ai/ha): 100
- Plant response rating, Oat, Wild (wild oat; 31 g ai/ha): 0
- Plant response rating, Oat, Wild (wild oat; 62 g ai/ha): 0
- Plant response rating, Oat, Wild (wild oat; 125 g ai/ha): 0
- Plant response rating, Oat, Wild (wild oat; 250 g ai/ha): 15
- Plant response rating, Nutsedge, Yellow (yellow nutsedge; 31 g ai/ha): 0
- Plant response rating, Nutsedge, Yellow (yellow nutsedge; 62 g ai/ha): 0
- Plant response rating, Nutsedge, Yellow (yellow nutsedge; 125 g ai/ha): 0
- Plant response rating, Nutsedge, Yellow (yellow nutsedge; 250 g ai/ha): 45
- Plant response rating, Crabgrass, Large (large crabgrass; 31 g ai/ha): 60
- Plant response rating, Crabgrass, Large (large crabgrass; 62 g ai/ha): 60
- Plant response rating, Crabgrass, Large (large crabgrass; 125 g ai/ha): 95
- Plant response rating, Crabgrass, Large (large crabgrass; 250 g ai/ha): 100
- Plant response rating, Foxtail, Giant (giant foxtail; 31 g ai/ha): 65
- Plant response rating, Foxtail, Giant (giant foxtail; 62 g ai/ha): 70
- Plant response rating, Foxtail, Giant (giant foxtail; 125 g ai/ha): 75
- Plant response rating, Foxtail, Giant (giant foxtail; 250 g ai/ha): 75
